Test results reported in EP0178388A1, “Quinolinecarboxylic acid derivatives” (KYORIN PHARMACEUTICAL CO., LTD., priority 1984, dated 1986).
Values after ≈ are worked out from the molar mass of the structure shown. Like-named read-outs stand apart in the source and are kept apart here.

Experiments:
[1] = tested on: Staphylococcus aureus 209 P; experiment: In vitro antibacterial activity, MIC (standard strain); assay type: cell-based; settings: 10^6 cells/ml
[2] = tested on: P. aeruginosa IFO 12689; experiment: as above; assay type: cell-based; settings: P. aeruginosa IFO 12689, 10^6 cells/ml, standard strain; listed as Exp.7
[3] = tested on: S. pneumoniae S-4288; experiment: MIC against the infecting strain (Table 2); assay type: cell-based; settings: Streptococcus pneumoniae, S4288; S. pneumoniae S-4288 (Table 2, part 4)
[4] = tested on: K. pneumoniae KY(GN)6445; experiment: In vitro antibacterial activity, MIC (standard strain); assay type: cell-based
[5] = tested on: S. pneumoniae S-4288; experiment: In vivo antibacterial activity against systemic infection in mice; set-up: species or system mice (ICR-S); settings: Streptococcus pneumoniae
Protocol: (§1) Experiment 2 In vivo antibacterial activity against systemic infection in mice (ICR-S)
(§2) The infections were produced by intraperitoneal infection of a suspension of the bacterial culture corresponding to the germ studied. The product was administered orally at 1 hour after the infection. The 50% effective dose (ED50) which protects 50% of the animals from death caused by the infection was determined from the relation between dosage and survival rate.

[6] = tested on: Serratia marcescens IID 618; experiment: In vitro antibacterial activity, MIC (standard strain); assay type: cell-based; settings: Serratia marcescens IID 618, 10^6 cells/ml
[7] = tested on: E. coli ML4707; experiment: In vivo antibacterial activity against systemic infection in mice;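 also: ED50 in mg/kg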; settings: Escherichia coli, ML4707, po, 1 h, E. coli ML4707, mice (ICR-S), intraperitoneal infection, oral at 1 hour after infection
Protocol: as §1, §2

[8] = tested on: Acinetobacter anitratus IID 876; experiment: In vitro antibacterial activity, MIC (standard strain); assay type: cell-based; settings: Acinetobacter calcoaceticus, IID876
[9] = tested on: Proteus vulgaris IFO 3167; experiment: as above; assay type: cell-based; settings: Proteus vulgaris, IFO3167
[10] = tested on: C. ramosum; experiment: as above; assay type: cell-based; settings: Thomasclavelia ramosa
[11] = tested on: Citrobacter freundii IID 976; experiment: as above; assay type: cell-based; settings: Citrobacter freundii, IID976
[12] = tested on: Bacteroides fragilis GM 7000; experiment: as above; assay type: cell-based; settings: Bacteroides fragilis, GM7000
[13] = tested on: Bacillus subtilis PCI 219; experiment: as above; assay type: cell-based; settings: Bacillus subtilis, PCI219
[14] = tested on: B. fragilis 0558; experiment: as above; assay type: cell-based; settings: Bacteroides fragilis, 0558
[15] = tested on: P. aeruginosa IID 1210; experiment: In vivo antibacterial activity against systemic infection in mice; set-up: species or system mice (ICR-S); settings: Pseudomonas aeruginosa, IID1210, po, 1 h;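 also: ED50 in mg/kg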
Protocol: as §1, §2

[16] = tested on: S. aureus Smith; experiment: as above; set-up: species or system mice (ICR-S); settings: Staphylococcus aureus, po, 1 h;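 also: ED50 in mg/kg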
Protocol: as §1, §2

[17] = tested on: Yersinia enterocolitica IID 981; experiment: In vitro antibacterial activity, MIC (standard strain); assay type: cell-based; settings: Yersinia enterocolitica, IID981
[18] = tested on: Shigella sonnei IID 969; experiment: as above; assay type: cell-based; settings: IID969, Shigella sonnei IID 969, 10^6 cells/ml
Protocol: The in vitro antibacterial activity has been investigated, the minimun inhibitory concentration (MIC) was determined in accordance with the method recommended by Japan Society of Chemotherapy.

[19] = tested on: P. morganii IID 602; experiment: as above; assay type: cell-based; settings: Morganella morganii, IID602
[20] = tested on: Salmonella enteritidis IID 604; experiment: as above; assay type: cell-based; settings: Salmonella enterica
[21] = tested on: Klebsiella pneumoniae I-220S; experiment: as above; assay type: cell-based; settings: Klebsiella pneumoniae
[22] = tested on: B. fragilis 25285; experiment: as above; assay type: cell-based; settings: Bacteroides fragilis, 25285
[23] = tested on: B. thetaiotaomicron (0661); experiment: as above; assay type: cell-based; settings: Bacteroides thetaiotaomicron
[24] = tested on: Escherichia coli NIHJ JC-2; experiment: as above; assay type: cell-based; settings: NIHJJC2, Escherichia coli NIHJ JC-2, 10^6 cells/ml
[25] = tested on: Pseudomonas aeruginosa V-1; experiment: as above; assay type: cell-based; settings: Pseudomonas aeruginosa, V1

In the case of `CC1CN(c2c(F)cc3c(=O)c(C(=O)O)cn(C4CC4)c3c2Cl)CCN1` (stereo not drawn) [Example 7, 8-Chloro-l-cyclopropyl-6-fluoro-l,4-dihydro-7-(3-methyl-l-piperazinyl)-4-oxoquinoline-3-carboxylic acid], the MIC [1] is reported as 0.10 µg/mL (≈ 0.263 µM), the MIC [2] is reported as 0.78 µg/mL (≈ 2.05 µM) and the MIC [3] is reported as 0.78 µg/mL (≈ 2.05 µM). The MIC ([4]; K. pneumoniae KY(GN)6445, 10^6 cells/ml, standard strain) was 0.025 µg/mL (≈ 0.0658 µM), the ED50 ([5]; S4288, S. pneumoniae S-4288, mice (ICR-S), intraperitoneal infection, oral at 1 hour after infection, challenge dose 2.5 x 10^3 cfu/mouse, read-out: ED50) was 15.6 mg/kg and the MIC [6] was 0.05 µg/mL (≈ 0.132 µM).

Work on `O=C(O)c1cn(C2CC2)c2cc(N3CCNCC3)c(F)cc2c1=O` [CFLX, 1-Cyclopropyl-6-fluoro-1,4-dihydro-4-oxo-7-(1-piperazinyl)-quinoline-3-carboxylic acid, reference compound] yielded an ED50 ([7]; challenge dose 6.0 x 10^6 cfu/mouse (part 1)) of 0.67 mg/kg, an ED50 ([7]; challenge dose 8.3 x 10^6 cfu/mouse (part 2)) of 0.75 mg/kg and an MIC [8] of 0.025 µg/mL (≈ 0.0754 µM). It also gave an MIC [9] of no more than 0.006 µg/mL, an MIC [10] of 3.13 µg/mL (≈ 9.45 µM) and an MIC [11] of no more than 0.006 µg/mL. The MIC [12] was 3.13 µg/mL (≈ 9.45 µM), the MIC [13] was 0.05 µg/mL (≈ 0.151 µM) and the MIC [14] was 3.13 µg/mL (≈ 9.45 µM). For the same molecule, the MIC ([4]; Klebsiella pneumoniae) was 0.025 µg/mL (≈ 0.0754 µM), the ED50 [15] was 8 mg/kg and the ED50 ([5]; S4288, po, 1 h) was greater than 100 mg/kg. It also gave an ED50 [16] of 12.8 mg/kg, an MIC [17] of 0.05 µg/mL (≈ 0.151 µM) and an MIC [18] of no more than 0.006 µg/mL. The MIC [19] was 0.05 µg/mL (≈ 0.151 µM), the MIC [20] was 0.025 µg/mL (≈ 0.0754 µM) and the MIC [21] was 0.05 µg/mL (≈ 0.151 µM). It also gave an MIC [22] of 3.13 µg/mL (≈ 9.45 µM), an MIC [23] of 3.13 µg/mL (≈ 9.45 µM) and an MIC [24] of no more than 0.006 µg/mL. For the same molecule, the MIC [25] was 0.2 µg/mL (≈ 0.604 µM).
